From patent publication US12358886B2, “Heterocyclic compounds for use in the treatment of cancer” (Artios Pharma Limited, priority 2019, dated 2025) come the findings set out here.

Each structure is given as a SMILES string. Like-named read-outs stand apart in the source and are kept apart here.

The target of the experiment is Polθ protein (amino acids 2-2590) (Homo sapiens, UniProt O75417). The experiment in a line: Polθ full length enzyme potency assay (PicoGreen). The note with it: full length N-His, C-term FLAG tagged Polθ, PicoGreen fluorescence, 12 point concentration response.
Sequence of Polθ protein (amino acids 2-2590) (O75417 2-2590): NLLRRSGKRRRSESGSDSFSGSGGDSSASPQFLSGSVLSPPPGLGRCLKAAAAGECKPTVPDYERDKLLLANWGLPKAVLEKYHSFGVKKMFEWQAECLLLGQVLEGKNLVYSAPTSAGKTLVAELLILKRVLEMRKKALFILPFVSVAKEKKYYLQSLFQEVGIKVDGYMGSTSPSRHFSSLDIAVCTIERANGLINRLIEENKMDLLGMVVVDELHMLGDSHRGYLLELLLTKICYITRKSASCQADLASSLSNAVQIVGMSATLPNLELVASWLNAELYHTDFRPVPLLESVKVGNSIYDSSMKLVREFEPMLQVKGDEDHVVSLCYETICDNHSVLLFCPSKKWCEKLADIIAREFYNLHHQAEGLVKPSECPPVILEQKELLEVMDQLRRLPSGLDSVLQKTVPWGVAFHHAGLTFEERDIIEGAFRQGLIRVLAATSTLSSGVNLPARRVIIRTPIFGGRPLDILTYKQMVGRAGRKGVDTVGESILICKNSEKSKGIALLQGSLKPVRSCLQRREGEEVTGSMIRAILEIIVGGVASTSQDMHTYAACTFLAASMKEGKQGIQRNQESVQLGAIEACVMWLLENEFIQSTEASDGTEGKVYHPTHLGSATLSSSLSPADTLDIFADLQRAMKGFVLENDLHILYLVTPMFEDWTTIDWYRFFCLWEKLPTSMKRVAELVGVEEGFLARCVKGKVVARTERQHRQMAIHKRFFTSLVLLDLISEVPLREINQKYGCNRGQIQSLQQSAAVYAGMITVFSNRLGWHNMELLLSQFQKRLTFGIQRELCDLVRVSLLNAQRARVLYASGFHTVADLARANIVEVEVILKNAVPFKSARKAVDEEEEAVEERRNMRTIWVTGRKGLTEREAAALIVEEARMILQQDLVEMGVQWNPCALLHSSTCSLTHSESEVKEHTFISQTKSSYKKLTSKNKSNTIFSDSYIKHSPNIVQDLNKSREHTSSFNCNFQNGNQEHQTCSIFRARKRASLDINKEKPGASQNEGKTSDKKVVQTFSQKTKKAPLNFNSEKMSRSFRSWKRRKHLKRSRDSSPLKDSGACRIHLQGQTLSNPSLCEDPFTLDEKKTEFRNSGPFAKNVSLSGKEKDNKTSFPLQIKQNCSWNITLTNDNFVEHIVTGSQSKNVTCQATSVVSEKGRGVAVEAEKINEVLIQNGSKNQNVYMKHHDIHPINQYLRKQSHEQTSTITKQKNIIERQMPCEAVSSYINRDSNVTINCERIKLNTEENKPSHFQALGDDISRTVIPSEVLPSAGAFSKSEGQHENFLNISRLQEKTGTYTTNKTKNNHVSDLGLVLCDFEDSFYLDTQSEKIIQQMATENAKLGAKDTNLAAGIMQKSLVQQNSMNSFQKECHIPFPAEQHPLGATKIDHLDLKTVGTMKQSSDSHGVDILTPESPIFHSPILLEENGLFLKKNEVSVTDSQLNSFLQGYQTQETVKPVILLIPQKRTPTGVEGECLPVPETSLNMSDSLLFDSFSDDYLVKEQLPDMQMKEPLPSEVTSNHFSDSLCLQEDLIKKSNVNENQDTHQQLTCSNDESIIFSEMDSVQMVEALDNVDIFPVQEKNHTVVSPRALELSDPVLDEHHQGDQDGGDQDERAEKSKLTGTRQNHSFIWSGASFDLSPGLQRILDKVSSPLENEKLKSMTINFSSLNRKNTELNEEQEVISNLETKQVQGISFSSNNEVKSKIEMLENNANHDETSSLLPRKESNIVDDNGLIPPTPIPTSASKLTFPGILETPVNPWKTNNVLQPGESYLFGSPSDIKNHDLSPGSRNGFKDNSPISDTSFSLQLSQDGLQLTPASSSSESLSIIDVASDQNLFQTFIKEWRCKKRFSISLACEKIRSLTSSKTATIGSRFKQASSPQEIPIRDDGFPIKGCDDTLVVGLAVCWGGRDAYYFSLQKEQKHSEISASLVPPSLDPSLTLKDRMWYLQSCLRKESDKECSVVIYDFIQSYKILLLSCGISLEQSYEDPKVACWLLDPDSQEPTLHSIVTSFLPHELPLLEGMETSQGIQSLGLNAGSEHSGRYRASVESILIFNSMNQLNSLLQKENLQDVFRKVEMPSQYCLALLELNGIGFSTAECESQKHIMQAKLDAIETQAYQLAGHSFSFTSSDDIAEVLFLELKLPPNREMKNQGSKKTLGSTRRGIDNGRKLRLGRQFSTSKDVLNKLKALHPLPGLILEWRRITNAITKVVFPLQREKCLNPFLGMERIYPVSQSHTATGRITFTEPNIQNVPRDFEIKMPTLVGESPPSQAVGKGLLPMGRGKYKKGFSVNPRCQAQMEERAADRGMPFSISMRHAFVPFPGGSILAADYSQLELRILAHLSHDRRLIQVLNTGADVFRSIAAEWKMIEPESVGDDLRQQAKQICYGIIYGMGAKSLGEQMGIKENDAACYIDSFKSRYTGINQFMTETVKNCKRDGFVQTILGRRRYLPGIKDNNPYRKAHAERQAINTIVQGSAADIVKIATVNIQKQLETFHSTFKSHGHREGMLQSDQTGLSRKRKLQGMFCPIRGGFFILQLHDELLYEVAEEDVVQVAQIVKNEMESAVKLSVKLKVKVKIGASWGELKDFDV

Experimental: Polθ Full Length Enzyme Potency Assay
PicoGreen assay was used to measure the ability of compounds to inhibit the activity of Polθ in vitro. […] DMSO concentration was maintained at 1% by back filling with DMSO solution. […] This was dispensed into each well of the compound plate using a VIAFLO 16 channel manual pipette (Integra) and pre-incubated at rt for 30 min. 3 μL of 2× working solution of dNTPs (40 μM) (dATP, dCTP, dGTP, dTTP; Sigma D6500, D4635, D4010, T0251) diluted in assay buffer was then added and the reaction incubated for 60 min at rt. The reaction was stopped by addition of 10 mM EDTA, 25 mM Tris pH 7.5 and 1:200 dilution of PicoGreen dye (Invitrogen P7581).

Usually IC50 stands for the concentration at which inhibition is half-maximal. As for `Cc1cc(C(F)(F)F)cc(N2C(=O)NC[C@H]2C(=O)N(C)c2ccc3sccc3n2)n1` [Example 237, (S)—N-Methyl-3-(6-methyl-4-(trifluoromethyl)pyridin-2-yl)-2-oxo-N-(thieno[3,2-b]pyridin-5-yl)imidazolidine-4-carboxamide], the half-maximal inhibitory concentration (IC50) (Polθ IC50 (nM)) stood at 37 nM.
Same read-out and setting: for `CNc1cccc(N(C)C(=O)[C@@H]2COC(=O)N2c2cc(C(F)(F)F)cc(C)n2)n1` [Example 176, (S)—N-Methyl-3-(6-methyl-4-(trifluoromethyl)pyridin-2-yl)-N-(6-(methylamino)pyridin-2-yl)-2-oxooxazolidine-4-carboxamide] the value was 94 nM.
As to `Cc1cc(C(C)C(F)(F)F)cc(N2C(=O)OC[C@H]2C(=O)N(C)c2ccc(F)c(Cl)c2)n1` (stereo partly drawn) [Example 124, (4S)—N-(3-Chloro-4-fluorophenyl)-N-methyl-3-(6-methyl-4-(1,1,1-trifiuoropropan-2-yl)pyridin-2-yl)-2-oxooxazolidine-4-carboxamide], for the setting “Polθ IC50 (nM)”, the IC50 came to 304 nM.
As for `Cc1cc(C(F)(F)F)cc(N2C(=O)N(CCN3CC[C@@H](O)C3)C[C@H]2C(=O)N(C)c2ccc(F)c(Cl)c2)n1` [Example 197, (S)-N-(3-Chloro-4-fluorophenyl)-1-(2-((R)-3-hydroxypyrrolidin-1-yl)ethyl)-N-methyl-3-(6-methyl-4-(trifluoromethyl)pyridin-2-yl)-2-oxoimidazolidine-4-carboxamide], inhibition (Polθ IC50 (nM)) was half-maximal at 19 nM (IC50).
`CCN(C(=O)[C@@H]1C[C@H](N2CCOC(CO)C2)CN1c1nc(C)cc(C(F)(F)F)c1C#N)c1ccc(F)c(C)c1` (stereo partly drawn) [Example 150, (2S,4S)-1-(3-Cyano-6-methyl-4-(trifluoromethyl)pyridin-2-yl)-N-ethyl-N-(4-fluoro-3-methylphenyl)-4-(2-(hydroxymethyl)morpholino)pyrrolidine-2-carboxamide] yielded an IC50 (Polθ IC50 (nM)) of 11 nM.
In turn, `Cc1cc(C(F)(F)F)cc(N2C(=O)OC[C@H]2C(=O)N(C)c2cccc(N(C)C)n2)n1` [Example 177, (S)—N-(6-(Dimethylamino)pyridin-2-yl)-N-methyl-3-(6-methyl-4-(trifluoromethyl)pyridin-2-yl)-2-oxooxazolidine-4-carboxamide] gave an IC50 (Polθ IC50 (nM)) of 109 nM.
On the same count and under the same terms, for `Cc1cc(C(F)(F)F)cc(N2C(=O)OC[C@H]2C(=O)N(C)c2ccc3cn[nH]c3c2)n1` [Example 174, (S)—N-(1H-Indazol-6-yl)-N-methyl-3-(6-methyl-4-(trifluoromethyl)pyridin-2-yl)-2-oxooxazolidine-4-carboxamide] the value was 158 nM; for `Cc1cc(C(F)(F)F)cc(N2C(=O)N(CCN3CCNCC3)C[C@H]2C(=O)N(C)c2ccc(F)c(Cl)c2F)n1` [Example 192, (S)—N-(3-Chloro-2,4-difluorophenyl)-N-methyl-3-(6-methyl-4-(trifluoromethyl)pyridin-2-yl)-2-oxo-1-(2-(piperazin-1-yl)ethyl)imidazolidine-4-carboxamide], 9 nM.
On the same count and under the same terms, for `Cc1cccc(N(C(=O)[C@@H]2CCCN2c2nc(C)cc(C(F)(F)F)c2C#N)C(C)C)c1` [Example 2, (S)-1-(3-Cyano-6-methyl-4-(trifluoromethyl)pyridin-2-yl)-N-isopropyl-N-(m-tolyl)pyrrolidine-2-carboxamide] the value was 9 nM; for `Cc1cc(C(F)(F)F)cc(N2C(=O)N(CC3(O)CNC3)C[C@H]2C(=O)N(C)c2ccc(F)c(Cl)c2)n1` [Example 225, (S)—N-(3-Chloro-4-fluorophenyl)-1-((3-hydroxyazetidin-3-yl)methyl)-N-methyl-3-(6-methyl-4-(trifluoromethyl)pyridin-2-yl)-2-oxoimidazolidine-4-carboxamide], 17 nM; for `CCN(C(=O)[C@@H]1C[C@H](N)C(=O)N1c1cc(C(F)(F)F)cc(C)n1)c1ccc(F)c(Cl)c1` [Example 61, (2S,4S)-4-Amino-N-(3-chloro-4-fluorophenyl)-N-ethyl-1-(6-methyl-4-(trifluoromethyl)pyridin-2-yl)-5-oxopyrrolidine-2-carboxamide], 136 nM.
Still for that read-out and setting: with `Cc1cc(C)c(C#N)c(N2C[C@@H](O)C[C@H]2C(=O)N(C)c2ccccc2)n1` [Example 7, (2S,4S)-1-(3-Cyano-4,6-dimethylpyridin-2-yl)-4-hydroxy-N-methyl-N-phenylpyrrolidine-2-carboxamide] the figure was 438 nM.
On to `Cc1cc(C(F)(F)F)cc(N2C(=O)OC[C@H]2C(=O)N(C)c2ccc(Cl)c(F)c2F)n1` [Example 101, (S)-N-(4-Chloro-2,3-difluorophenyl)-N-methyl-3-(6-methyl-4-(trifluoromethyl)pyridin-2-yl)-2-oxooxazolidine-4-carboxamide], for which, for the setting “Polθ IC50 (nM)”, the IC50 turned out to be 23 nM.
Still for that read-out and setting: with `Cc1cc(C(F)(F)F)cc(N2C(=O)[C@@H](O)[C@@H](O)[C@H]2C(=O)N(C)c2ccc3ccn(C)c3n2)n1` [Example 167, (2S,3S,4S)-3,4-Dihydroxy-N-methyl-N-(1-methyl-1H-pyrrolo[2,3-b]pyridin-6-yl)-1-(6-methyl-4-(trifluoromethyl)pyridin-2-yl)-5-oxopyrrolidine-2-carboxamide] the figure was 56 nM; with `Cc1cc(C(F)(F)F)cc(N2C(=O)NC[C@H]2C(=O)N(c2ccc(F)c(Cl)c2)C(C)C)n1` [Example 179, (S)—N-(3-Chloro-4-fluorophenyl)-N-isopropyl-3-(6-methyl-4-(trifluoromethyl)pyridin-2-yl)-2-oxoimidazolidine-4-carboxamide], 15 nM.
The same measure, in the same setting: with `Cc1cc(C(F)(F)F)cc(N2C(=O)N(CCN3CCOCC3)C[C@H]2C(=O)N(C)c2ccc(F)c(Cl)c2)n1` [Example 194, (S)-N-(3-Chloro-4-fluorophenyl)-N-methyl-3-(6-methyl-4-(trifluoromethyl)pyridin-2-yl)-1-(2-morpholinoethyl)-2-oxoimidazolidine-4-carboxamide] the figure was 7 nM; with `CCc1cc(N(C)C(=O)[C@@H]2COC(=O)N2c2cc(C(F)(F)F)cc(C)n2)ccc1F` [Example 110, (S)—N-(3-Ethyl-4-fluorophenyl)-N-methyl-3-(6-methyl-4-(trifluoromethyl)pyridin-2-yl)-2-oxo-oxazolidine-4-carboxamide], 21 nM; with `Cc1cc(C(F)(F)F)cc(N2C(=O)N(CCS(C)(=N)=O)C[C@H]2C(=O)N(C)c2ccc(F)c(Cl)c2)n1` (stereo partly drawn) [Example 213, (4S)—N-(3-Chloro-4-fluorophenyl)-N-methyl-3-(6-methyl-4-(trifluoromethyl)pyridin-2-yl)-1-(2-(S-methylsulfonimidoyl)ethyl)-2-oxoimidazolidine-4-carboxamide], 26 nM.
`Cc1cc(C(F)(F)F)cc(N2C(=O)N(CC3CN(C)CCO3)C[C@H]2C(=O)N(C)c2ccc(F)c(Cl)c2F)n1` (stereo partly drawn) [Example 219, (4S)—N-(3-Chloro-2,4-difluorophenyl)-N-methyl-3-(6-methyl-4-(trifluoromethyl)pyridin-2-yl)-1-((4-methylmorpholin-2-yl)methyl)-2-oxoimidazolidine-4-carboxamide] yielded an IC50 (Polθ IC50 (nM)) of 11 nM.
For `Cc1cc(C(F)(F)F)cc(N2C(=O)N(CCO)C[C@H]2C(=O)N(C)c2ccc(F)c(Cl)c2)n1` [Example 193, (S)—N-(3-Chloro-4-fluorophenyl)-1-(2-hydroxyethyl)-N-methyl-3-(6-methyl-4-(trifluoromethyl)pyridin-2-yl)-2-oxoimidazolidine-4-carboxamide], the IC50 (Polθ IC50 (nM)) was found to be 6 nM.
In turn, `Cc1cc(C(F)(F)F)cc(N2C(=O)[C@@H](O)[C@@H](O)[C@H]2C(=O)N(C)c2ccc3cnn(C)c3c2)n1` [Example 168, (2S,3S,4S)-3,4-Dihydroxy-N-methyl-N-(1-methyl-1H-indazol-6-yl)-1-(6-methyl-4-(trifluoromethyl)pyridin-2-yl)-5-oxopyrrolidine-2-carboxamide] showed an IC50 (Polθ IC50 (nM)) of 71 nM.
On the same count and under the same terms, with `Cc1cc(C(F)(F)F)cc(N2C(=O)N(CCN3CCC3)C[C@H]2C(=O)N(C)c2ccc(F)c(Cl)c2)n1` [Example 200, (S)-1-(2-(Azetidin-1-yl)ethyl)-N-(3-chloro-4-fluorophenyl)-N-methyl-3-(6-methyl-4-(trifluoromethyl)pyridin-2-yl)-2-oxoimidazolidine-4-carboxamide] the figure was 12 nM.
For the molecule `Cc1cc(C(F)(F)F)cc(N2C(=O)OC[C@H]2C(=O)N(C)c2cccc(Cl)c2F)n1` [Example 95, (S)-N-(3-Chloro-2-fluorophenyl)-N-methyl-3-(6-methyl-4-(trifluoromethyl)pyridin-2-yl)-2-oxooxazolidine-4-carboxamide], the IC50 (read-out: Polθ IC50) is 15 nM.
The molecule `Cc1cc(C(F)(F)F)cc(N2C(=O)OC[C@H]2C(=O)N(C)c2ccc(Br)c(Cl)c2)n1` [Example 172, (S)-N-(4-Bromo-3-chlorophenyl)-N-methyl-3-(6-methyl-4-(trifluoromethyl)pyridin-2-yl)-2-oxooxazolidine-4-carboxamide] returned an IC50 (Polθ IC50 (nM)) of 20 nM.
Same read-out and setting: for `Cc1cc(C(F)(F)F)cc(N2C(=O)N(CCN3CCCC3CO)C[C@H]2C(=O)N(C)c2ccc(F)c(Cl)c2)n1` (single isomer, unassigned; isomer 2) [Example 199] the value was 32 nM; for `Cc1cc(C(F)(F)F)cc(N2C(=O)OC[C@H]2C(=O)N(C)c2ccc(Cl)c(Cl)c2)n1` [Example 89, (S)-N-(3,4-Dichlorophenyl)-N-methyl-3-(6-methyl-4-(trifluoromethyl)-pyridin-2-yl)-2-oxooxazolidine-4-carboxamide], 16 nM.
Same read-out and setting: with `Cc1cc(C(F)(F)F)c(C#N)c(N2C[C@@H](N3CCOC(CO)C3)C[C@H]2C(=O)N(C)c2ccc(F)c(Cl)c2)n1` (stereo partly drawn) [Example 151, (2S,4S)-N-(3-Chloro-4-fluorophenyl)-1-(3-cyano-6-methyl-4-(trifluoromethyl)pyridin-2-yl)-4-(2-(hydroxymethyl)morpholino)-N-methylpyrrolidine-2-carboxamide] the figure was 23 nM; with `C=Cc1c(F)ccc(N(C)C(=O)[C@@H]2COC(=O)N2c2cc(C(F)(F)F)cc(C)n2)c1F` [Example 107, (S)—N-(2,4-Difluoro-3-vinylphenyl)-N-methyl-3-(6-methyl-4-(trifluoromethyl)pyridin-2-yl)-2-oxooxazolidine-4-carboxamide], 18 nM.
